What all share (format): functional
One assay concerns Escherichia coli. Put plainly: In vitro antibacterial activity against Escherichia coli, expressed as minimum inhibitory concentration (MIC).
In assay [1] the test system is Enterococcus faecalis. Put plainly: In vitro antibacterial activity against Enterococcus faecalis (vancomycin, methicillin and ciprofloxacin resistant), expressed as minimum inhibitory concentration (MIC).
The test system of the next assay is Staphylococcus aureus. In words: In vitro antibacterial activity against methicillin-resistant Staphylococcus aureus (MRSA), expressed as minimum inhibitory concentration (MIC).
For assay [2], the system named is Enterococcus faecium. In words: In vitro antibacterial activity against Enterococcus faecium (vancomycin, methicillin and ciprofloxacin resistant), expressed as minimum inhibitory concentration (MIC).
For assay [3], the system named is Mus musculus. Put plainly: In vivo activity against Escherichia coli in mice after subcutaneous administration; Range is 8-10 mg/kg. The following applies: sc, read-out: PD50.
In assay [4] the test system is Mus musculus. Put plainly: In vivo activity against Pasteurella multocida in mice after subcutaneous administration; Range is 8-10 mg/kg. The following applies: sc, read-out: PD50.
A further assay concerns Pasteurella multocida. Put plainly: In vitro antibacterial activity against Pasteurella multocida, expressed as minimum inhibitory concentration (MIC).
The test system of assay [5] is Mus musculus. Put plainly: In vivo activity against Pasteurella multocida in mice after subcutaneous administration. The following applies: sc, read-out: PD50.
Assay [6] concerns Mus musculus. In words: In vivo activity against Pasteurella multocida in mice. The following applies: read-out: PD50.
Assay [7] deals with Enterococcus faecium. In words: Protective dose against both MRSA and vancomycin-resistant Enterococcus faecium. The following applies: read-out: PD50.
Assay [8] deals with Enterococcus faecalis. Put plainly: In vitro antibacterial activity against E. faecalis( vancomycin, methicillin and ciprofloxacin resistant), expressed as minimum inhibitory concentration (MIC).

SMILES strings stand for the structures. Converted amounts (≈) assume the structure as drawn. *1 amine or outer side, *2 acyl side, *3 side chain or, on linkers, in order; H or OH if unused. Where a SMILES comes first, the peptide text is derived from it. Bridges are numbered along the chain shown (N, C = ends). Side-chain parts run from the residue outwards. [ ]: non-standard residue; d: D form. The star is where a group is joined. ξ: configuration not given here. NH(4-cHex-phenyl) = c1cc(C2CCCCC2)ccc1N*; X4 = NC1=NCCC([C@H](N[*:1])C(=O)[*:2])N1; ΔAla(Z-3-ureido) = NC(=O)N/C=C(\N)C(=O)O; ΔDap(Z) = O=C(/C(=C/N[*:3])N[*:1])[*:2]; X6 = c1ccc(Cc2ccc(N*)cc2)cc1; β3hOrn = NCCC[C@H](N)CC(=O)*; X7 = c1cc(N2CCCCC2)ccc1N*; Dap = NC[C@H](N)C(=O)O; CO = O=C([*:1])[*:2]; X5 = Clc1cc(N*)ccc1I; ξDap = NCC(N)C(=O)O Where only a bound is given, the exact number is not on record here.

By MIC is commonly meant the lowest concentration found to suppress growth. Low values mean greater potency, high ones weaker potency. With `NCCC[C@H](N)CC(=O)NC1CNC(=O)[C@H](C2C[C@@H](O)N=C(N)N2)NC(=O)/C(=C/Nc2ccc(Cl)c(Cl)c2)NC(=O)[C@H](CO)NC(=O)[C@H](CO)NC1=O` (stereo partly drawn), the minimal inhibitory concentration (MIC) against Escherichia coli came out at 12.5 µg/mL (≈ 15.9 µM); in the assay on Enterococcus faecalis [1], 50 µg/mL (≈ 63.5 µM); against Staphylococcus aureus it was 12.5 µg/mL (≈ 15.9 µM); with Enterococcus faecium [2], 25 µg/mL (≈ 31.7 µM); against Pasteurella multocida, 0.78 µg/mL (≈ 0.99 µM). Moreover, the ED50 with Mus musculus [3] and with Mus musculus [4] was 10 mg/kg each time.
As to `C[C@@H]1NC(=O)C(N)CNC(=O)[C@H](C2CCN=C(N)N2)NC(=O)/C(=C/Nc2ccc(C3CCCCC3)cc2)NC(=O)[C@H](CNC(=O)C[C@@H](N)CCCN)NC1=O.NCCC[C@H](N)CC(=O)NC[C@@H]1NC(=O)[C@H](CO)NC(=O)C(N)CNC(=O)[C@H](C2CCN=C(N)N2)NC(=O)/C(=C/Nc2ccc(C3CCCCC3)cc2)NC1=O` (stereo partly drawn), the MIC was 6.25 µg/mL with Escherichia coli; 12.5 µg/mL against Enterococcus faecalis [1]; 1.56 µg/mL in the assay on Staphylococcus aureus; 6.25 µg/mL with Enterococcus faecium [2]; 0.2 µg/mL with Pasteurella multocida. Moreover, in the assay with Mus musculus [5], the ED50 is 2 mg/kg.
Turning to `C[C@@H]1NC(=O)C(N)CNC(=O)[C@H](C2CCN=C(N)N2)NC(=O)/C(=C/Nc2ccc(Cl)c(Cl)c2)NC(=O)[C@H](CNC(=O)C[C@@H](N)CCCN)NC1=O.NCCC[C@H](N)CC(=O)NC[C@@H]1NC(=O)[C@H](CO)NC(=O)C(N)CNC(=O)[C@H](C2CCN=C(N)N2)NC(=O)/C(=C/Nc2ccc(Cl)c(Cl)c2)NC1=O` (stereo partly drawn), the MIC against Escherichia coli was determined as 6.25 µg/mL; in the assay on Enterococcus faecalis [1], 25 µg/mL; against Staphylococcus aureus it was 0.78 µg/mL; in the assay on Enterococcus faecium [2] it was 12.5 µg/mL; against Pasteurella multocida, 0.39 µg/mL. Also, the ED50 in the assay on Mus musculus [5] was 6 mg/kg.
As to `NCC[C@@H](O)[C@H](N)CC(=O)NC1CNC(=O)[C@@H](C2CCN=C(N)N2)NC(=O)/C(=C/NC(=O)Nc2ccc(C3CCCC3)cc2Cl)NC(=O)[C@@H](CO)NC(=O)[C@@H](CO)NC1=O` (stereo partly drawn), the MIC in the assay with Enterococcus faecalis [1] is 6.25 µg/mL (≈ 7.23 µM); with Staphylococcus aureus it was 3.12 µg/mL (≈ 3.61 µM); against Enterococcus faecium [2], 3.12 µg/mL (≈ 3.61 µM).
As for `NCCC[C@H](N)CC(=O)NC[C@@H]1NC(=O)[C@H](CO)NC(=O)C(N)CNC(=O)[C@H](C2CCN=C(N)N2)NC(=O)/C(=C/NC(=O)Nc2cc(Cl)c(Cl)c(Cl)c2)NC1=O` (stereo partly drawn), the MIC against Escherichia coli came out at 12.5 µg/mL (≈ 14.7 µM); in the assay with Enterococcus faecalis [1] it was 3.12 µg/mL (≈ 3.68 µM); with Staphylococcus aureus, 0.78 µg/mL (≈ 0.92 µM); against Enterococcus faecium [2], 1.56 µg/mL (≈ 1.84 µM); against Pasteurella multocida it was 0.2 µg/mL (≈ 0.236 µM). Besides, the ED50 in the assay on Mus musculus [6] was determined as 4 mg/kg; with Enterococcus faecium [7], 3 mg/kg.
For the compound `C[C@@H]1NC(=O)C(N)CNC(=O)[C@H](C2CCN=C(N)N2)NC(=O)/C(=C/Nc2nc(-c3ccc(Br)cc3)cs2)NC(=O)[C@H](CNC(=O)C[C@@H](N)CCCN)NC1=O.NCCC[C@H](N)CC(=O)NC[C@@H]1NC(=O)[C@H](CO)NC(=O)C(N)CNC(=O)[C@H](C2CCN=C(N)N2)NC(=O)/C(=C/Nc2nc(-c3ccc(Br)cc3)cs2)NC1=O` (stereo partly drawn), the minimal inhibitory concentration (MIC) was found to be 100 µg/mL against Escherichia coli; 50 µg/mL against Enterococcus faecalis [1]; 12.5 µg/mL against Staphylococcus aureus; 12.5 µg/mL against Enterococcus faecium [2]; 3.13 µg/mL in the assay on Pasteurella multocida.
For the compound `C[C@@H]1NC(=O)C(N)CNC(=O)[C@H](C2CCN=C(N)N2)NC(=O)/C(=C/NC(N)=O)NC(=O)[C@H](CNC(=O)C[C@@H](N)CCCN)NC1=O.NCCC[C@H](N)CC(=O)NC[C@@H]1NC(=O)[C@H](CO)NC(=O)C(N)CNC(=O)[C@H](C2CCN=C(N)N2)NC(=O)/C(=C/NC(N)=O)NC1=O` (stereo partly drawn) (H-[ξDap]S[Dap](β3hOrn)[ΔAla(Z-3-ureido)][X4]; lactam 1-C), the MIC with Escherichia coli was 200 µg/mL; with Staphylococcus aureus, 100 µg/mL; against Enterococcus faecium [2], more than 1000 µg/mL; in the assay with Enterococcus faecalis [8], more than 1000 µg/mL; against Pasteurella multocida it was 50 µg/mL.
On to `NCCC[C@H](N)CC(=O)NC[C@@H]1NC(=O)[C@H](CO)NC(=O)C(N)CNC(=O)[C@H](C2CCN=C(N)N2)NC(=O)/C(=C/NC(=O)Nc2ccc(C3CCCCC3)cc2)NC1=O` (stereo partly drawn) (H-[ξDap]S[Dap](β3hOrn)[ΔDap(Z)]([CO-NH(4-cHex-phenyl)])[X4]; lactam 1-C), for which the minimal inhibitory concentration (MIC) against Escherichia coli came to 25 µg/mL (≈ 30.2 µM); against Enterococcus faecalis [1], 3.12 µg/mL (≈ 3.77 µM); with Staphylococcus aureus, 1.56 µg/mL (≈ 1.89 µM); in the assay with Enterococcus faecium [2] it was 1.56 µg/mL (≈ 1.89 µM); in the assay with Pasteurella multocida it was 0.39 µg/mL (≈ 0.472 µM).
With `C[C@@H]1NC(=O)C(N)CNC(=O)[C@H](C2CCN=C(N)N2)NC(=O)/C(=C/NC(=O)Nc2ccc(Cc3ccccc3)cc2)NC(=O)[C@H](CNC(=O)C[C@@H](N)CCCN)NC1=O.NCCC[C@H](N)CC(=O)NC[C@@H]1NC(=O)[C@H](CO)NC(=O)C(N)CNC(=O)[C@H](C2CCN=C(N)N2)NC(=O)/C(=C/NC(=O)Nc2ccc(Cc3ccccc3)cc2)NC1=O` (stereo partly drawn) (H-[ξDap]S[Dap](β3hOrn)[ΔDap(Z)]([CO-X6])[X4]; lactam 1-C), the minimal inhibitory concentration (MIC) amounted to 12.5 µg/mL against Escherichia coli; 6.25 µg/mL in the assay with Enterococcus faecalis [1]; 1.56 µg/mL in the assay with Staphylococcus aureus; 3.12 µg/mL against Enterococcus faecium [2]; 0.78 µg/mL in the assay on Pasteurella multocida.
For `NCCC[C@H](N)CC(=O)NC[C@@H]1NC(=O)[C@H](CO)NC(=O)C(N)CNC(=O)[C@H](C2CCN=C(N)N2)NC(=O)/C(=C/NC(=O)Nc2ccc(N3CCCCC3)cc2)NC1=O` (stereo partly drawn) (H-[ξDap]S[Dap](β3hOrn)[ΔDap(Z)]([CO-X7])[X4]; lactam 1-C) the same measures were 50 µg/mL (≈ 60.4 µM), 100 µg/mL (≈ 121 µM), 3.12 µg/mL (≈ 3.77 µM), 100 µg/mL (≈ 121 µM) and 1.56 µg/mL (≈ 1.88 µM).
Consider `C[C@@H]1NC(=O)C(N)CNC(=O)[C@H](C2CCN=C(N)N2)NC(=O)C(CNC(=O)Nc2ccc(I)c(Cl)c2)NC(=O)[C@H](CNC(=O)C[C@@H](N)CCCN)NC1=O.NCCC[C@H](N)CC(=O)NC[C@@H]1NC(=O)[C@H](CO)NC(=O)C(N)CNC(=O)[C@H](C2CCN=C(N)N2)NC(=O)C(CNC(=O)Nc2ccc(I)c(Cl)c2)NC1=O` (stereo partly drawn) (H-[ξDap]S[Dap](β3hOrn)[ξDap]([CO-X5])[X4]; lactam 1-C), for which the MIC worked out at 6.25 µg/mL in the assay on Escherichia coli; 50 µg/mL with Enterococcus faecalis [1]; 3.12 µg/mL in the assay on Staphylococcus aureus; 12.5 µg/mL in the assay on Enterococcus faecium [2]; 0.78 µg/mL with Pasteurella multocida. Besides, the ED50 in the assay with Mus musculus [6] was found to be 7 mg/kg.
For `CN[C@H](CC(C)C)C(=O)N[C@H]1C(=O)N[C@@H](CC(N)=O)C(=O)N[C@H]2C(=O)N[C@H]3C(=O)N[C@H](C(=O)N[C@H](C(=O)O)c4cc(O)cc(O)c4-c4cc3ccc4O)[C@H](O)c3ccc(c(Cl)c3)Oc3cc2cc(c3O[C@@H]2O[C@H](CO)[C@@H](O)[C@H](O)[C@H]2O[C@H]2C[C@](C)(N)[C@H](O)[C@H](C)O2)Oc2ccc(cc2Cl)[C@H]1O` [VANCOMYCIN], the figures for the MIC against Enterococcus faecalis [1], against Staphylococcus aureus and in the assay on Enterococcus faecium [2] were more than 100 µg/mL, 0.78 µg/mL (≈ 0.538 µM) and more than 100 µg/mL, respectively.

Values taken from ChEMBL document CHEMBL1129919, “Cyclic homopentapeptides 1. Analogs of tuberactinomycins and capreomycin with activity against vancomycin-resistant enterococci and Pasteurella” (1997).
